According to paper PMC8759726, “Click chemistry based synthesis, cytotoxic activity and molecular docking of novel triazole-thienopyrimidine hybrid glycosides targeting EGFR” (Journal of Enzyme Inhibition and Medicinal Chemistry, 2021):

Columns and labels:
[1] = system: HCT-116 (human colorectal carcinoma) cell line; assay: MTT cytotoxicity assay, HCT-116; format: cell-based; conditions: 48 h incubation, mean ± SD
Method: (§1) HCT-116 (human colorectal carcinoma) and MCF-7 (human breast adenocarcinoma) cell lines were purchased from the American Type Culture Collection (Rockville, MD) and maintained in Dulbecco’s Modified Eagle’s Medium (DMEM) supplemented with 10% heat-inactivated foetal bovine serum (FBS), 100 U ml^−1 penicillin, and 100 U ml^−1 streptomycin. The cells were grown at 37 °C in a humidified atmosphere of 5% CO2.
(§2) Cytotoxicity activity against HCT-116 and MCF-7 was estimated by the 3-[4,5-dimethyl-2-thiazolyl)-2,5-diphenyl-2H-tetrazolium bromide (MTT) assay. This test is based on MTT cleavage by mitochondrial dehydrogenases from viable cells[43]^,[44]. Cells were placed in a 96-well sterile microplate (5 × 10^4 cells well^−1) and incubated at 37 °C in serum-free media containing dimethyl sulphoxide (DMSO) and either a series of various concentrations of each compound or doxorubicin (positive control) for 48 h before the MTT assay. After incubation, the media were removed and 40 µl MTT (2.5 mg ml^−1) was added to each well. Incubation was resumed for an additional 4 h. The purple formazan dye crystals were solubilised with 200 µl DMSO. Absorbance was measured at 590 nm in a Spectra Max Paradigm Multi-Mode microplate reader (Molecular Devices, LLC, San Jose, CA). Relative cell viability was expressed as the mean percentage of viable cells compared to the untreated control cells.
(§3) All experiments were conducted in triplicate and repeated on three different days. All values were reported as mean ± SD. The IC50 values were determined by SPSS Inc. probit analysis (IBM Corp., Armonk, NY).

[2] = system: MCF-7 (human breast adenocarcinoma) cell line; assay: MTT cytotoxicity assay, MCF-7; format: cell-based; conditions: 48 h incubation, mean ± SD
Method: as §1, §2, §3

[3] = target: mutant EGFR kinase type L858R (Homo sapiens, UniProt P00533, L858R); assay: In vitro kinase inhibition assay (Kinase-Glo Max luminescence); conditions: IC50 (mean ± SEM) (µM) EGFR, mean of three values ± SEM
Chain of mutant EGFR kinase type L858R (P00533 25-1210 L858R): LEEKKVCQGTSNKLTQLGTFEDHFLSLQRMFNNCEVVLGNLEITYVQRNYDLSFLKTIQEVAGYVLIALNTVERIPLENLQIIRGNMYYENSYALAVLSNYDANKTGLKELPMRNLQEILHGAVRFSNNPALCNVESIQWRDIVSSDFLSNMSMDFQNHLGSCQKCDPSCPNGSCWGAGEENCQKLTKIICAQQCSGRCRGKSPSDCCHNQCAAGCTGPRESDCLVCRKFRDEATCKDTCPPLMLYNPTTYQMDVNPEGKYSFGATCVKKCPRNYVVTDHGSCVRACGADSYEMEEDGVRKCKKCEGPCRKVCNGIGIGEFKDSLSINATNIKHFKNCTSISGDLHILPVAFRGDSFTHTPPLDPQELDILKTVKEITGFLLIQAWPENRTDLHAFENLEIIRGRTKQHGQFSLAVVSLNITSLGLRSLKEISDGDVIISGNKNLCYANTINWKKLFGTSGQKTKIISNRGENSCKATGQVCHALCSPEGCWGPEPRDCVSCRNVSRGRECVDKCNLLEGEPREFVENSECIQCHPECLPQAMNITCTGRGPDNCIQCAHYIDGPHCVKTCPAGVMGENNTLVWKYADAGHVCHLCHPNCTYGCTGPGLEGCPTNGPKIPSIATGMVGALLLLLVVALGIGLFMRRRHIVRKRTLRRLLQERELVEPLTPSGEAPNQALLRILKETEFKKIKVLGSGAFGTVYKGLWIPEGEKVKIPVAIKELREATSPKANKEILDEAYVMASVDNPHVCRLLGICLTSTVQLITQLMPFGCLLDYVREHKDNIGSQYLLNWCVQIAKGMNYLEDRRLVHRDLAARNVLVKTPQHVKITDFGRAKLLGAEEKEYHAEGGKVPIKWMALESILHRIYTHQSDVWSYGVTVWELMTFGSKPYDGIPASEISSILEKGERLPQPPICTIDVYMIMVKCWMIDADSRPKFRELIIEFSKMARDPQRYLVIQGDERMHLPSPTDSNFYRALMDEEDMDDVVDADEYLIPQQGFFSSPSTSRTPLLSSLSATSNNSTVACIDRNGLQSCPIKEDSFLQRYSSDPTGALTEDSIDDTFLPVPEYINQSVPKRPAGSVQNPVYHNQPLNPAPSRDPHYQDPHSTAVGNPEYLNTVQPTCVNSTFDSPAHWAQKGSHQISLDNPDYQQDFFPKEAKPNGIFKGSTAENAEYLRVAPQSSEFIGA
Method: The master mixture (6 μl 5× kinase buffer + 1 μl ATP (500 μM)+1 μl 50× PTK substrate + 17 μl water) was prepared then, 25 μl to every well was added. Five microlitres of inhibitor solution of each well labelled as “Test Inhibitor” was added. However, for the “Positive Control” and “Blank”, 5 μl of the same solution without inhibitor (inhibitor buffer) was added. Three millilitres of 1× kinase buffer by mixing 600 μl of 5× kinase buffer with 2400 μl water was prepared. […] To the wells designated as “Blank”, 20 μl of 1× kinase buffer was added. EGFR enzyme on ice was thawed. Upon first thaw, briefly the tube containing enzyme was spun to recover full content of the tube. The amount of EGFR required for the assay and dilute enzyme to 1 ng/μl with 1× kinase buffer was calculated. Moreover, the remaining undiluted enzyme in aliquots was stored at –80 °C. The reaction was initiated by adding 20 μl of diluted EGFR enzyme to the wells designated “Positive Control” and “Test Inhibitor Control”, after that it was incubated at 30 °C for 40 min. After the 40 minutes’ reaction, 50 μl of Kinase-Glo Max reagent was added to each well and the plate was covered with aluminium foil and incubated at room temperature for 15 min. Luminescence was measured using the microplate reader.

Structure (SMILES)	IC50 ([1]; Homo sapiens, HCT-116, 48 h)	IC50 ([2]; Homo sapiens, MCF7, 48 h)	melting point	IC50 [3]	IC50 [1]	IC50 [2]
CC(=O)OCC1OC(OCc2cn(CCSc3nc4sc5c(c4c(=O)n3N)CCC5)nn2)C(OC(C)=O)C(OC(C)=O)C1OC(C)=O [Compound 13, 3-Amino-2-(ethylylthio)-{2-[4-({[2,3,4,6-tetra-O-acetyl-β-D-glucopyranosyl]oxy}methyl)-1H-1,2,3-triazol-1-yl]ethoxy}-3,5,6,7-tetrahydro-4H-cyclopenta[4,5]thieno[2,3-d] pyrimidin-4-one]	8.7 ± 1.6 µM	4.2 ± 0.5 µM	159 to 160 °C			
CC(=O)OC1COC(n2cc(CSc3nc4sc5c(c4c(=O)n3N)CCC5)nn2)C(OC(C)=O)C1OC(C)=O [Compound 5, 3-Amino-2-(((1-(2,3,4-tri-O-acetyl-β-D-xyloopyranosyl)-1H-1,2,3-triazol-4-yl)methyl)thio)-3,5,6,7-tetrahydro-4H-cyclopenta[4,5]thieno[2,3-d]pyrimidin-4-one]	8.6 ± 0.9 µM	2.9 ± 0.4 µM	155 to 156 °C	0.13 µM		
CC(=O)OCC1OC(OCc2cn(CCSc3nc4sc5c(c4c(=O)n3N)CCC5)nn2)C(OC(C)=O)C(OC(C)=O)C1OC(C)=O (stereo not drawn) [Compound 14]			156 to 157 °C	0.013 µM	8.8 ± 1.1 µM	4.5 ± 0.7 µM
CC(=O)OC1COC(OCc2cn(CCSc3nc4sc5c(c4c(=O)n3N)CCC5)nn2)C(OC(C)=O)C1OC(C)=O (stereo not drawn) [Compound 15]	8.9 ± 1.1 µM	5 ± 0.9 µM	153 to 154 °C	0.017 µM		
COc1cccc2c1C(=O)c1c(O)c3c(c(O)c1C2=O)C[C@@](O)(C(=O)CO)C[C@@H]3O[C@H]1C[C@H](N)[C@H](O)[C@H](C)O1 [Doxorubicin, reference compound]	7.8 ± 0.7 µM	6.7 ± 0.9 µM				
CC(=O)OCC1OC(OCc2cn(CCCCSc3nc4sc5c(c4c(=O)n3N)CCC5)nn2)C(OC(C)=O)C(OC(C)=O)C1OC(C)=O (stereo not drawn) [Compound 16]	8.1 ± 0.8 µM	5.3 ± 0.8 µM	163 to 164 °C			
CC(=O)OC[C@H]1O[C@@H](n2cc(CSc3nc4sc5c(c4c(=O)n3N)CCC5)nn2)[C@H](OC(C)=O)[C@@H](OC(C)=O)[C@@H]1OC(C)=O [Compound 4, 3-Amino-2-(((1-(2,3,4,6-tetra-O-acetyl-β-D-glucopyranosyl)-1H-1,2,3-triazol-4-yl)methyl)thio)-3,5,6,7-tetrahydro-4H-cyclopenta [4,5]thieno[2,3-d]pyrimidin-4-one]			151 to 152 °C			
Nn1c(SCc2cn([C@@H]3OC[C@@H](O)[C@H](O)[C@H]3O)nn2)nc2sc3c(c2c1=O)CCC3 [Compound 7, 3-Amino-2-(((1-(β-D-xylopyranosyl)-1H-1,2,3-triazol-4-yl)methyl)thio)-3,5,6,7-tetrahydro-4H-cyclopenta[4,5]thieno[2,3-d]pyrimidin-4-one]	8.7 ± 1.5 µM	4.3 ± 0.8 µM	189 to 190 °C	0.17 ± 0.43 µM		
C#CCSc1nc2sc3c(c2c(=O)n1N)CCC3 [Compound 2, 3-Amino-2-(prop-2-yn-1-ylthio)-3,5,6,7-tetrahydro-4H-cyclopenta[4,5]thieno[2,3-d]pyrimidin-4-one]	8.6 ± 1.9 µM	2.1 ± 0.3 µM	181 to 182 °C	0.5 ± 1 µM		
CC(=O)OCC1OC(OCc2cn(CCCCSc3nc4sc5c(c4c(=O)n3N)CCC5)nn2)C(OC(C)=O)C(OC(C)=O)C1OC(C)=O (stereo not drawn) [Compound 17]			159 to 160 °C	0.02 µM	8.4 ± 1.1 µM	5.2 ± 0.9 µM
